According to patent US20250248954A1, “PHARMACEUTICAL COMPOSITION FOR PREVENTING OR TREATING DIABETIC STROKE, CONTAINING RAGE ANTAGONIST AND AGE SCAVENGER” (AJOU UNIVERSITY INDUSTRY-ACADEMIC COOPERATION FOUNDATION, priority 2022, published 2025):

Tests used:
Format in all cases: in vivo, SD rats
[1] = test system: experimental animal model of diabetes mellitus (DM) subjected to tMCAO; assay: Diabetic (STZ, 34 days) rat 30-minute tMCAO model: body weight, blood glucose, glycated hemoglobin, brain injury by MRI; details: diabetic rats, vs DM-vehicle
Method: (§1) Specifically, these were carried out as follows. To produce an experimental animal model of diabetes mellitus (DM), 7-week-old male SD rats were fasted for 16 hours. Thereafter, streptozotocin (STZ) was administered to the rats, and on day 3, blood glucose levels were measured. The rats were divided into a vehicle group and an aminoguanidine (AG) group, which had similar average blood glucose levels, and were maintained for 34 days. The AG group was orally administered 100 mg/kg of aminoguanidine once a day starting from day 4 after diabetes induction, and was finally administered aminoguanidine within 30 minutes after MCAO. On day 1 after MCAO, the mNSS test shown in FIG. 9 was performed, and then cerebral infarction was checked using an animal MRI system. Next, the rats were sacrificed, and plasma and brain tissue were collected and analyzed. For comparison, protein expression in the brain tissue from normal rats (sham) was used as a control. The impact on diabetes was evaluated by checking changes in body weight and blood glucose levels once a week after diabetes induction and checking final glycated hemoglobin levels after MCAO. To evaluate brain injury, the volume of cerebral infarction was determined using an animal MRI system.

[2] = test system: MGH1; assay: MGH1 expression in brain tissue of diabetic tMCAO groups by immunohistochemical staining and Western blot; details: diabetic rats, day 1 after MCAO; 100 mg/kg orally once a day from day 4; vs vehicle group; FIG. 8
Method: as §1, with “control.” for “control. The impact on diabetes was evaluated by checking changes in body weight and blood glucose levels once a week after diabetes induction and checking final glycated hemoglobin levels after MCAO. To evaluate brain injury, the volume of cerebral infarction was determined using an animal MRI system.”
Day 1 after MCAO, the expression levels of MGH1 in the brain tissues from the diabetic groups were analyzed by immunohistochemical staining and Western blot analysis.

[3] = test system: hyperglycemic model subjected to temporary middle cerebral artery occlusion (tMCAO); assay: Hyperglycemic (STZ) rat 30-minute tMCAO cerebral ischemia model: body weight, mNSS test, brain injury (cresyl violet); details: 30 min MCAO, 10 mg/kg i.p. once a day
Method: (§2) Specifically, these were carried out as follows. To produce an experimental animal model, 7-week-old male SD rats were fasted for 16 hours. Thereafter, streptozotocin (STZ) was administered to the rats, and after 3 days, fasting blood glucose levels were measured in the tail vein, and only animals with a blood glucose level of 300 mg/dl or more were used as a hyperglycemic model. A cerebral ischemia model was produced by subjecting the produced hyperglycemic model or a normoglycemic model to temporary middle cerebral artery occlusion (tMCAO). For MCAO, a coated suture was inserted through the right external carotid artery into the internal carotid artery, and inserted approximately 19 mm up to the middle cerebral artery (MCA). 30 minutes or 2 hours after insertion, the coated suture was removed, and a reperfusion model was used as a cerebral ischemia model. […] The normoglycemic group (NG), after 2 hours of MCAO, was divided into a vehicle group and an FPS-ZM1 group and used in the experiment. The hyperglycemic group (HG), after 30 minutes of MCAO, was divided into a vehicle group and an FPS-ZM1 group and used in the experiment. The FPS-ZM1 group in each of the normoglycemic group and the hyperglycemic group was injected intraperitoneally with 10 mg/kg of FPS-ZM1 within 5 minutes after MCAO reperfusion and injected with FPS-ZM1 once a day. After surgery, the mNSS (modified neurological severity score) test shown in FIG. 9 and weight measurement were conducted at a certain time every day to check body weight changes and neurobehavioral deficits of the experimental animals. In addition, rats were sacrificed 3 days after MCAO, and plasma and brain tissue were collected and analyzed.
(§3) After performing MCAO, body weight measurement and the mNSS test were performed at the same time every day.
(§4) To evaluate brain injury, the volume of cerebral infarction was determined by staining the entire brain with cresyl violet at 1-mm intervals.

[4] = test system: normoglycemic model subjected to temporary middle cerebral artery occlusion (tMCAO); assay: Normoglycemic rat 2-hour tMCAO cerebral ischemia model: body weight, brain injury (cresyl violet); details: 2 h MCAO, 10 mg/kg i.p. once a day
Method: as §2, §3, §4

[5] = test system: RAGE, AGE, methylglyoxal (MGH1), GFAP; assay: Western blot analysis of protein expression in brain tissue, hyperglycemic tMCAO group; details: HG, 30 min MCAO, 10 mg/kg i.p.
Method: as §2, with “analyzed. After all experiments were completed, the protein expression levels of RAGE, AGE, and methylglyoxal (MGH1) in the brain tissue from each experimental group were analyzed by Western blot analysis. For comparison, protein expression in the brain tissue from normal rats (sham) was used as a control.” for “analyzed.”

[6] = test system: RAGE, AGE, methylglyoxal (MGH1); assay: Western blot analysis of protein expression in brain tissue, normoglycemic tMCAO group; details: NG, 2 h MCAO, 10 mg/kg i.p.
Method: as §2, with “analyzed. After all experiments were completed, the protein expression levels of RAGE, AGE, and methylglyoxal (MGH1) in the brain tissue from each experimental group were analyzed by Western blot analysis. For comparison, protein expression in the brain tissue from normal rats (sham) was used as a control.” for “analyzed.”

[7] = test system: neuronal cell death, astrocytes and microglia, AGE and MGH1 in the cerebral cortex; assay: Cresyl violet and immunohistochemical staining of cerebral cortex, hyperglycemic tMCAO group; details: HG, 30 min MCAO; 10 mg/kg i.p.; FIG. 4
Method: Specifically, these were carried out as follows. To produce an experimental animal model, 7-week-old male SD rats were fasted for 16 hours. Thereafter, streptozotocin (STZ) was administered to the rats, and after 3 days, fasting blood glucose levels were measured in the tail vein, and only animals with a blood glucose level of 300 mg/dl or more were used as a hyperglycemic model. A cerebral ischemia model was produced by subjecting the produced hyperglycemic model or a normoglycemic model to temporary middle cerebral artery occlusion (tMCAO). For MCAO, a coated suture was inserted through the right external carotid artery into the internal carotid artery, and inserted approximately 19 mm up to the middle cerebral artery (MCA). 30 minutes or 2 hours after insertion, the coated suture was removed, and a reperfusion model was used as a cerebral ischemia model. Since cerebral infarction was rarely found in normoglycemic animals after 30-minute MCAO, a model subjected to 2 hours of MCAO was used and compared with the hyperglycemic group. The normoglycemic group (NG), after 2 hours of MCAO, was divided into a vehicle group and an FPS-ZM1 group and used in the experiment. The hyperglycemic group (HG), after 30 minutes of MCAO, was divided into a vehicle group and an FPS-ZM1 group and used in the experiment. The FPS-ZM1 group in each of the normoglycemic group and the hyperglycemic group was injected intraperitoneally with 10 mg/kg of FPS-ZM1 within 5 minutes after MCAO reperfusion and injected with FPS-ZM1 once a day. After surgery, the mNSS (modified neurological severity score) test shown in FIG. 9 and weight measurement were conducted at a certain time every day to check body weight changes and neurobehavioral deficits of the experimental animals. In addition, rats were sacrificed 3 days after MCAO, and plasma and brain tissue were collected and analyzed.
The degree of neuronal cell death in the cerebral cortex from each experimental group was analyzed using cresyl violet staining. In addition, immunohistochemistry was used to analyze the level of activity of astrocytes and microglia and the expression levels of AGE and MGH1 in the cells.

[8] = test system: neuronal cell death in the cerebral cortex; assay: Cresyl violet staining of cerebral cortex, normoglycemic tMCAO group; details: NG, 2 h MCAO; 10 mg/kg i.p.; vs sham group; FIG. 4
Method: Specifically, these were carried out as follows. To produce an experimental animal model, 7-week-old male SD rats were fasted for 16 hours. Thereafter, streptozotocin (STZ) was administered to the rats, and after 3 days, fasting blood glucose levels were measured in the tail vein, and only animals with a blood glucose level of 300 mg/dl or more were used as a hyperglycemic model. A cerebral ischemia model was produced by subjecting the produced hyperglycemic model or a normoglycemic model to temporary middle cerebral artery occlusion (tMCAO). For MCAO, a coated suture was inserted through the right external carotid artery into the internal carotid artery, and inserted approximately 19 mm up to the middle cerebral artery (MCA). 30 minutes or 2 hours after insertion, the coated suture was removed, and a reperfusion model was used as a cerebral ischemia model. Since cerebral infarction was rarely found in normoglycemic animals after 30-minute MCAO, a model subjected to 2 hours of MCAO was used and compared with the hyperglycemic group. […] In addition, rats were sacrificed 3 days after MCAO, and plasma and brain tissue were collected and analyzed.
The degree of neuronal cell death in the cerebral cortex from each experimental group was analyzed using cresyl violet staining. […]

[9] = test system: ZO-1, occludin, claudin, Tie-2, VEGF, Ang-1, MMP-2, MMP-9; assay: Real-time PCR of vascular-related factors in brain tissue after tMCAO; details: 10 mg/kg i.p., FIG. 5
Method: Specifically, these were carried out as follows. To produce an experimental animal model, 7-week-old male SD rats were fasted for 16 hours. Thereafter, streptozotocin (STZ) was administered to the rats, and after 3 days, fasting blood glucose levels were measured in the tail vein, and only animals with a blood glucose level of 300 mg/dl or more were used as a hyperglycemic model. A cerebral ischemia model was produced by subjecting the produced hyperglycemic model or a normoglycemic model to temporary middle cerebral artery occlusion (tMCAO). For MCAO, a coated suture was inserted through the right external carotid artery into the internal carotid artery, and inserted approximately 19 mm up to the middle cerebral artery (MCA). 30 minutes or 2 hours after insertion, the coated suture was removed, and a reperfusion model was used as a cerebral ischemia model. […] The normoglycemic group (NG), after 2 hours of MCAO, was divided into a vehicle group and an FPS-ZM1 group and used in the experiment. The hyperglycemic group (HG), after 30 minutes of MCAO, was divided into a vehicle group and an FPS-ZM1 group and used in the experiment. […] In addition, rats were sacrificed 3 days after MCAO, and plasma and brain tissue were collected and analyzed.

[10] = HG, 3 days after MCAO, vs HG-vehicle, cresyl violet
[11] = NG, 3 days after MCAO, vs NG-vehicle

SMILES: N=C(N)NN [AG, aminoguanidine]
- brain injury (volume of cerebral infarction, animal MRI) ([1]; 30 min MCAO on day 34, 100 mg/kg orally once a day from day 4, day 1 after MCAO): no significant difference
- glycated hemoglobin level ([1]; 100 mg/kg orally once a day from day 4, after MCAO): no significant difference
- blood glucose level ([1]; 100 mg/kg orally once a day from day 4): no significant difference
- change in body weight ([1]; 100 mg/kg orally once a day from day 4 after diabetes induction): not significantly different
- expression level of MGH1 in brain tissue (immunohistochemical staining and Western blot) [2]: decreased

SMILES: O=C(c1ccc(Cl)cc1)N(Cc1ccccc1)C1CCCCC1 [FPS-ZM1]
- cross-sectional area of injury [3, 10]: significantly decreased
- volume of actual injury [3, 10]: more significant in the HG-FPS-ZM1 group than in the HG-vehicle group
- mNSS score ([3]; HG, vs the other MCAO groups, FIG. 1C): significantly lower than those in the other groups
- body weight change after MCAO ([3]; hyperglycemic group (HG), vs initial body weight before MCAO, FIG. 1B): no reduction in body weight
- cross-sectional area of injury [4, 11]: difficult through the area photographs to confirm the degree of reduction
- overall injury volume [4, 11]: decreased slightly in the NG-FPS-ZM1 group, but this decrease was not significant
- body weight change after MCAO ([4]; normoglycemic group (NG), vs initial body weight before MCAO, FIG. 1B): decreased compared to the initial body weight
- MGH1 protein expression level in brain tissue (Western blot) ([5]; between all groups, FIG. 3): no significant difference
- AGE expression level in brain tissue (Western blot) ([5]; vs HG-vehicle): significantly lower
- GFAP expression level in brain tissue (Western blot) ([5]; vs HG-vehicle): significantly lower
- MGH1 protein expression level in brain tissue (Western blot) ([6]; between all groups, FIG. 3): no significant difference
- AGE expression level in brain tissue (Western blot) ([6]; vs NG-vehicle): no significant difference
- RAGE expression level in brain tissue (Western blot) ([6]; vs NG-vehicle): no significant difference
- activated astrocytes (GFAP staining) [7]: less observed
- intracellular AGE staining [7]: less observed
- intracellular MGH1 staining [7]: less observed
- neuronal cell death / number of live cells in cerebral cortex (cresyl violet staining) [7]: the number of live cells was larger
- degree of neuronal cell death in cerebral cortex (cresyl violet staining) [8]: higher
- expression level of MMP-9 in brain tissue (real-time PCR) ([9]; HG, 30 min MCAO, vs HG-vehicle): significantly decreased in the HG-FPS-ZM1 group to a level similar to that in the sham group
- expression levels of most vascular-related factors in brain tissue (real-time PCR) ([9]; HG-FPS-ZM1 group compared to NG-FPS-ZM1 group): increased in the HG-FPS-ZM1 group compared to the NG-FPS-ZM1 group, but there was no significant difference between the groups
